{"source": "paper PMC8571282", "about": "(Nature Communications, 2021)", "key": {"in vitro [1]": {"experiment": "in vitro", "details": "human, % cell viability, M6 HAE, 72 h"}, "in vitro [2]": {"experiment": "in vitro", "details": "human, % cell viability"}, "“F2” primary HAE cells": {"system": "“F2” primary HAE cells", "experiment": "Cytotoxicity assay (PrestoBlue), “F2” HAE", "details": "72 h; for % cell viability: F2 HAE"}, "HEp-2 cells": {"system": "HEp-2 cells", "experiment": "Cytotoxicity assay (PrestoBlue), HEp-2", "details": "72 h"}, "in vitro [3]": {"experiment": "in vitro", "details": "human, % cell viability, M2 HAE, 72 h"}, "in vitro [4]": {"experiment": "in vitro", "details": "female, human, % cell viability, DF2 HAE, 33.333 µM, 72 h"}, "HCT-8 cells": {"system": "HCT-8 cells", "experiment": "Cytotoxicity assay (PrestoBlue), HCT-8", "details": "HCT-8, 72 h"}, "“F3” primary HAE cells": {"system": "“F3” primary HAE cells", "experiment": "Cytotoxicity assay (PrestoBlue), “F3” HAE", "details": "F3 HAE, 72 h"}, "[5]": {"details": "female, ferret, in vivo, iv"}, "in vitro [6]": {"experiment": "in vitro", "details": "human, 72 h"}, "in vitro [7]": {"experiment": "in vitro", "details": "African green monkey"}, "in vitro [8]": {"experiment": "in vitro", "details": "hamster"}, "in vitro [9]": {"experiment": "in vitro", "details": "human, % cell viability", "remark": "listed apart in the source"}, "[10]": {"system": "SARS-CoV-2-Nluc (WA1/2020-nano luciferase)", "experiment": "microbe, parasite or virus in culture", "type": "cell-based"}, "in vitro [11]": {"experiment": "in vitro", "details": "human"}}, "note": "Where “and” joins values, the source holds several entries; their conditions need not be identical. Equal entries are not always repeated.", "data": [{"smiles": "CCC(CC)COC(=O)[C@H](C)N[P@](=O)(OC[C@H]1O[C@@](C#N)(c2ccc3c(N)ncnn23)[C@H](O)[C@@H]1O)Oc1ccccc1", "note": "[remdesivir]", "values": [{"measurement": "viability at 100 µM", "setting": "in vitro [1]; 100 µM", "value": 89, "unit": "%"}, {"measurement": "viability at 0.046 µM", "setting": "in vitro [1]; male, 0.046 µM", "value": 90, "unit": "%"}, {"measurement": "viability at 1.235 µM", "setting": "in vitro [1]; male, 1.235 µM", "value": 87, "unit": "%"}, {"measurement": "viability at 33.333 µM", "setting": "in vitro [1]; male, 33.333 µM", "value": 96, "unit": "%"}, {"measurement": "viability at […]", "setting": "in vitro [2]; female", "value": 91, "unit": "%"}, {"measurement": "viability at 0.046 µM", "setting": "in vitro [2]; female, F3 HAE, 0.046 µM, 72 h", "value": 75, "unit": "%"}, {"measurement": "viability at 33.333 µM", "setting": "in vitro [2]; female, F3 HAE, 33.333 µM, 72 h", "value": 84, "unit": "%"}, {"measurement": "viability at 100 µM", "setting": "in vitro [2]; F3 HAE, 100 µM, 72 h", "value": 51, "unit": "%"}, {"measurement": "% cell viability", "setting": "“F2” primary HAE cells; 0.046 µM", "value": "85% and 82%"}, {"measurement": "% cell viability", "setting": "“F2” primary HAE cells; 33.333 µM", "value": "77% and 71%"}, {"measurement": "% cell viability", "setting": "“F2” primary HAE cells; 100 µM", "value": 47, "unit": "%"}, {"measurement": "CC50", "setting": "“F2” primary HAE cells; “F2” HAE", "value": 85.5, "unit": "µM"}, {"measurement": "% cell viability", "setting": "HEp-2 cells; HEp-2, 0.046 µM, 0.046 µM", "value": "45% and 47% and 73%"}, {"measurement": "% cell viability", "setting": "HEp-2 cells; HEp-2, 1.235 µM, 1.235 µM", "value": "86% and 94%"}, {"measurement": "% cell viability", "setting": "HEp-2 cells; HEp-2, 3.704 µM, 3.704 µM", "value": 96, "unit": "%"}, {"measurement": "% cell viability", "setting": "HEp-2 cells; HEp-2, 33.333 µM, 33.333 µM", "value": "51% and 66%"}, {"measurement": "% cell viability", "setting": "HEp-2 cells; HEp-2, 100 µM, 100 µM", "value": 24, "unit": "%"}, {"measurement": "viability at 100 µM", "setting": "in vitro [3]; 100 µM", "value": 56, "unit": "%"}, {"measurement": "viability at 0.046 µM", "setting": "in vitro [3]; male, 0.046 µM", "value": 85, "unit": "%"}, {"measurement": "viability at 33.333 µM", "setting": "in vitro [4]", "value": 86, "unit": "%"}, {"measurement": "CC50", "setting": "HCT-8 cells", "value": 36.4, "unit": "µM"}, {"measurement": "% cell viability", "setting": "“F3” primary HAE cells; 0.046 µM", "value": "76% and 79%"}, {"measurement": "% cell viability", "setting": "“F3” primary HAE cells; 33.333 µM", "value": "88% and 89%"}, {"measurement": "% cell viability", "setting": "“F3” primary HAE cells; 100 µM", "value": "52% and 54%"}, {"measurement": "lung GS-443902", "setting": "[5]", "value": 1.28, "unit": "nmol/g"}, {"measurement": "lung total nuc", "setting": "[5]", "value": 2.96, "unit": "nmol/g"}, {"measurement": "viability at 0.046 µM", "setting": "in vitro [6]; female, % cell viability, F2 HAE, 0.046 µM", "value": 81, "unit": "%"}, {"measurement": "viability at 33.333 µM", "setting": "in vitro [6]; female, % cell viability, F2 HAE, 33.333 µM", "value": 72, "unit": "%"}, {"measurement": "viability at 100 µM", "setting": "in vitro [6]; % cell viability, F2 HAE, 100 µM", "value": 46, "unit": "%"}, {"measurement": "CC50", "setting": "in vitro [6]; CC50, “F2” HAE", "value": 85.5, "unit": "µM"}, {"measurement": "CC50", "setting": "in vitro [7]", "value": "> 100", "unit": "µM"}, {"measurement": "viability at […]", "setting": "in vitro [7]; % cell viability", "value": 79, "unit": "%"}, {"measurement": "viability at 3.704 µM", "setting": "in vitro [7]; % cell viability, VeroE6, 3.704 µM, 72 h", "value": 92, "unit": "%"}, {"measurement": "CC50", "setting": "in vitro [8]", "value": "> 100", "unit": "µM"}, {"measurement": "viability at 1.235 µM", "setting": "in vitro [8]; % cell viability, BHK-21, 1.235 µM, 72 h", "value": 87, "unit": "%"}, {"measurement": "viability at 3.704 µM", "setting": "in vitro [8]; % cell viability, BHK-21, 3.704 µM, 72 h", "value": 93, "unit": "%"}, {"measurement": "viability at […]", "setting": "in vitro [9]", "value": 89, "unit": "%"}, {"measurement": "viability at 1.235 µM", "setting": "in vitro [9]; HEp-2, 1.235 µM, 72 h", "value": 83, "unit": "%"}, {"measurement": "viability at 33.333 µM", "setting": "in vitro [9]; HEp-2, 33.333 µM, 72 h", "value": 64, "unit": "%"}, {"measurement": "viability at 100 µM", "setting": "in vitro [9]; HEp-2, 100 µM, 72 h", "value": 31, "unit": "%"}, {"measurement": "A549-hACE2 SARS-CoV-2 Nluc (EC50 determination), normalized signal", "setting": "[10]; Conc 0.005 µM, replicate values of the experiments", "value": "78.71 and 115.29 and 114.83 and 141.39 and 91.95 and 93.98 and 92.17 and 82.76 and 114.48 and 78.49 and 78.52 and 118.54"}, {"measurement": "EC50", "setting": "[10]; Severe acute respiratory syndrome coronavirus 2, WA1/2020-nano luciferase, A549-ACE2, mean ± SD", "value": 0.08, "unit": "µM"}, {"measurement": "viability at 0.046 µM", "setting": "in vitro [11]; % cell viability, HCT-8, 0.046 µM, 72 h", "value": 76, "unit": "%"}, {"measurement": "viability at 33.333 µM", "setting": "in vitro [11]; % cell viability, HCT-8, 33.333 µM, 72 h", "value": 51, "unit": "%"}, {"measurement": "viability at 100 µM", "setting": "in vitro [11]; % cell viability, HCT-8, 100 µM, 72 h", "value": 15, "unit": "%"}, {"measurement": "CC50", "setting": "in vitro [11]; CC50, HCT-8, 72 h", "value": 36.4, "unit": "µM"}]}]}
